Data reported in patent publication US11648248B1 (King Abdulaziz University, priority 2022, dated 2023).
≈ marks a conversion by molar mass, not a printed value.

Columns and labels:
[1] = test system: multi-drug resistant staphylococcal strains; experiment: MIC against panel of staphylococcal strains; type: cell-based; settings: Staphylococcus; range over the staphylococcal panel; read-out: MIC values, tested staphylococcal strains
From the text: Based upon the initial results obtained, the active compounds were further screened against additional clinical isolates of methicillin-sensitive S. aureus (MSSA), methicillin-resistant S. aureus (MRSA), vancomycin-resistant S. aureus (VRSA), Staphylococcus epidermidis, vancomycin-resistant Enterococcus faecium (VRE), vancomycin-resistant Enterococcus faecalis (VRE) and Streptococcus pneumoniae, as presented in Table 2. Additionally, we examined whether the compounds were bacteriostatic (inhibit bacteria from growing) or bactericidal (kill bacteria) by determining the minimum bactericidal concentration (MBC). The MBC was determined by plating 5 μL from each well where no growth was present (in the MIC plates) onto tryptic soya agar plates and incubating plates at 37° C. for 24 hours. The MBC was categorized as the lowest concentration that generated a 99.9% reduction in bacterial colony-forming units (Table 3).
The minimum inhibitory concentrations (MICs) of the tested compounds and control drugs; linezolid, vancomycin, gentamicin (antibiotics) and fluconazole and 5-fluorocytosine (5-FC) (antifungal drugs) were determined using the broth microdilution method, according to guidelines outlined by the Clinical and Laboratory Standards Institute (CLSI)^1, 2, 3 against clinically-relevant bacterial (methicillin-resistant Staphylococcus aureus (MRSA), Escherichia coli and Clostridium difficile strains) and fungal (Candida albicans) strain. S. aureus and E. coli were grown aerobically overnight on tryptone soy agar plates at 37° C. C. difficile was grown anaerobically on brain heart infusion supplemented agar at 37° C. for 48 hours. C. albicans was grown aerobically overnight on yeast peptone dextrose (YPD) agar plate at 35° C. Afterwards, a bacterial solution equivalent to 0.5 McFarland standard was prepared and diluted in cation-adjusted Mueller-Hinton broth (CAMHB) (for S. aureus and E. coli) to achieve a bacterial concentration of about 5×10^5 CFU/mL. C. difficile was diluted in brain heart infusion supplemented broth, supplemented with yeast extract, hemin and vitamin K to achieve a bacterial concentration of about 5×10^5 CFU/mL. C. albicans was diluted in Roswell Park Memorial Institute (RPMI 1640) medium with glutamine and without bicarbonate (GIBCO by Life Technologies, Green Island, N.Y., USA) which was buffered to pH 7.0 with 0.165 M of [3-(N-morpholino) propanesulfonic acid] (MOPS) (dot scientific inc., Burton, Mich., USA) to achieve a fungal concentration of about 1.5×10^3 CFU/mL. Compounds and control drugs were added in the first row of the 96-well plates and serially diluted with the corresponding media containing bacteria/fungi. Plates were then, incubated aerobically at 37° C. for 18-20 hours (for S. aureus and E. coli). […]

Gram-positive strains = experiment: Relative MIC compared to reference drugs (FIG. 3); type: cell-based
From the text: FIG. 3. Relative MIC of MY31 compared to reference drugs.
For instance, it stopped the growth of VRSA strains with more potency than sorafenib (the prototype) and, as expected, much higher than vancomycin. […] Material and Methods

Structure (SMILES) | MIC [1] [µg/mL] | bacteriostatic activity relative to tested compounds and positive control antibiotics (Gram-positive strains)
O=C(Nc1cccc(Nc2ccc(Cl)nn2)c1)Nc1ccc(Cl)c(Cl)c1 [MY14, 1-(3-((6-chloropyridazin-3-yl)amino)phenyl)-3-(3,4-dichlorophenyl)urea] | 2 to 8 (≈ 4.89 to 19.6 µM) | 
O=C(Nc1ccc(Oc2ccc(=O)[nH]n2)cc1)Nc1ccc(Cl)c(C(F)(F)F)c1 [MY31, 1-(4-chloro-3-(trifluoromethyl)phenyl)-3-(4-((6-oxo-1,6-dihydropyridazin-3-yl)oxy)phenyl)urea] | 0.5 to 1 (≈ 1.18 to 2.35 µM) | highest bacteriostatic activity among the tested compounds
O=C(Nc1ccc(-c2ccc(=O)[nH]n2)cc1)Nc1ccc(Cl)c(Cl)c1 [MY21, 1-(3,4-dichlorophenyl)-3-(4-(6-oxo-1,6-dihydropyridazin-3-yl)phenyl)urea] | 0.5 to 1 (≈ 1.33 to 2.67 µM) | 
O=C(Nc1ccc(Oc2ccc(=O)[nH]n2)cc1)Nc1ccc(Cl)c(Cl)c1 [MY24, 1-(3,4-dichlorophenyl)-3-(4-((6-oxo-1,6-dihydropyridazin-3-yl)oxy)phenyl)urea] | 0.5 to 1 (≈ 1.28 to 2.56 µM) | 
